The numbers were not newly measured in patent publication US8952004B2, “CXCR3 receptor antagonists” (Boehringer Ingelheim International GmbH, priority 2010, dated 2015), which cites them from elsewhere.

In this series the test system is atherosclerotic lesion formation. The settings on record: LDL receptor knockout model, dosed prophylactically.

Take `CCOc1ccc(-n2c(C(C)N(Cc3cccnc3)C(=O)Cc3ccc(F)c(C(F)(F)F)c3)nc3ncccc3c2=O)cc1` (stereo not shown) [NBI-74330]: the atherosclerotic lesion formation entry is listed as “significantly attenuated atherosclerotic lesion formation”.
